Activity calls are given as the source filed them.
Columns and labels:
Aminopeptidase N = target: T1, Aminopeptidase N (Plasmodium falciparum FcB1/Columbia, UniProt O96935); assay: malaria alanyl aminopeptidase activity blockers – biochemical, fluorogenic H-Leu-NHMec substrate, 1536-well (AID 1445); design: species or system Plasmodium falciparum 3D7, 3D7
T1 sequence (O96935 whole entry): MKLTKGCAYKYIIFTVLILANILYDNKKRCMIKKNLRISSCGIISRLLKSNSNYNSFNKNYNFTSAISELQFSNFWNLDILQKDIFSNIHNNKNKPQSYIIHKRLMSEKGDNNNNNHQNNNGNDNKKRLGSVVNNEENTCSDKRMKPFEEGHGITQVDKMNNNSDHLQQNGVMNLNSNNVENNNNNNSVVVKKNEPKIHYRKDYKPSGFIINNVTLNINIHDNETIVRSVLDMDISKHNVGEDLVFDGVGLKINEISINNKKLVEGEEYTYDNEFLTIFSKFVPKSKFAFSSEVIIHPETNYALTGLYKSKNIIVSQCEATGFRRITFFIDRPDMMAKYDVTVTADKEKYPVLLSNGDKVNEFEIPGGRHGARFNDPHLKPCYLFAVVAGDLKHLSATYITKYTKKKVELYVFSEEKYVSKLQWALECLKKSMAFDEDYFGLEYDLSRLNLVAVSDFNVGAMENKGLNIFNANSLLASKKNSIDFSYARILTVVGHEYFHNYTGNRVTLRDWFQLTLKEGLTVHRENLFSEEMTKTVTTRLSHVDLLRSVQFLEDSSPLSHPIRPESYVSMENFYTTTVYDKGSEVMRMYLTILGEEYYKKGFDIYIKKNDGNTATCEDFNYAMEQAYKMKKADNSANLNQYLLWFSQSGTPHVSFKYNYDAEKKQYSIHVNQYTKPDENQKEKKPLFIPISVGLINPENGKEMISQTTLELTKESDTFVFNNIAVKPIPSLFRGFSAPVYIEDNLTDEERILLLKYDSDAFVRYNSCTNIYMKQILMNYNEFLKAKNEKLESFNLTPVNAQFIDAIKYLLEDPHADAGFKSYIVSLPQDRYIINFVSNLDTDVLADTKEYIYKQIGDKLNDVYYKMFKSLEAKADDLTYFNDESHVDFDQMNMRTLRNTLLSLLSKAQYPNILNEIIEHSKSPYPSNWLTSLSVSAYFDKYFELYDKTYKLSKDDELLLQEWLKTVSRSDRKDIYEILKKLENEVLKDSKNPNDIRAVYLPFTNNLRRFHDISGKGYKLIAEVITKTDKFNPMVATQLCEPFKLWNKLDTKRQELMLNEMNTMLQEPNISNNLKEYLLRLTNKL

[1] = off-target signal loss in HeLa-CEM21 co-culture – HeLa F-luc CTL cells, cherry-picked, counter-screen for HIV-1 Env fusion inhibitor project, dose response (AID 652040); type: functional, cell-based;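 further: potency for signal decrease marking cytotoxic or nonspecific inhibition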
cells [2] = type: functional
[3] = THP-1 cell cytotoxicity, dose response, cytotoxicity control for non-replicating M. tuberculosis project (AID 489025); type: functional
[4] = viability of PTEN-deleted HCT116 cells – cell-based, HCT116 PTEN knockout, dose response (AID 1047); type: functional;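 further: HCT116 colon tumor cells with PTEN knocked out; cells exposed to compound for 60 hours before readout; potency for loss of cell viability measured by luminescence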
[5] = viability of HCT116 lacking mutant beta-catenin – cell-based, human colon tumor, dose response (AID 1045); type: functional;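 further: HCT116 colon tumor cells with beta catenin knocked out; cells exposed to compound for 60 hours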
[6] = target: Heat shock protein HSP 90-alpha (Homo sapiens, UniProt P07900); type: functional, organism-based
cells [7] = type: functional, cell-based
cells [8] = type: functional, cell-based; remark: listed apart in the source
[9] = microbe, parasite or virus in culture; type: functional; settings: Mycobacterium tuberculosis
Leucine aminopeptidase = target: T2, Leucine aminopeptidase (Plasmodium falciparum 3D7, UniProt Q8IL11); assay: P. falciparum M17LAP inhibitors, primary screen, biochemical, fluorogenic H-Leu-NHMec substrate, 1536-well (AID 1619); type: functional
T2 sequence (Q8IL11 whole entry): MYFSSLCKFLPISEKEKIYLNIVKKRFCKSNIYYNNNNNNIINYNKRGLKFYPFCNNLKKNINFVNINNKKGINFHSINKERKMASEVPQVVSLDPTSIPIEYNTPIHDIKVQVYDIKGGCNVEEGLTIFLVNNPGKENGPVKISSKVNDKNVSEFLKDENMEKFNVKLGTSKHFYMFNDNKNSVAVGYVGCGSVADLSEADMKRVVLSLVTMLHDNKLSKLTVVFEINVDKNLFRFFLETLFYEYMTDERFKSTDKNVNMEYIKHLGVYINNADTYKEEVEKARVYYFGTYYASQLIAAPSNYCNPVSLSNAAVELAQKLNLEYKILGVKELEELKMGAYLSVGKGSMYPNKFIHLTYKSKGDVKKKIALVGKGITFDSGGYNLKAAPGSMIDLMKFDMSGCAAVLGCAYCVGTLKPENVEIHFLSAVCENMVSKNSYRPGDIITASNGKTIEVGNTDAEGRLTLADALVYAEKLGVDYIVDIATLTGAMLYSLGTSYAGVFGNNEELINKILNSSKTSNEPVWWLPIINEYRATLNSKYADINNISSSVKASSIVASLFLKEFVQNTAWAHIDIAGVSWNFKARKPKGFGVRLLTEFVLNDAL

Streptokinase A = target: T3, Streptokinase A (Streptococcus pyogenes serotype M1, UniProt P10520); assay: viability-normalized secreted streptokinase activity reduction – plasminogen activation absorbance, OD405, dose response (AID 1914); type: functional, Streptococcus pyogenes M1 GAS;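 further: secreted streptokinase activity via plasminogen activation per viability signal from cell pellet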
T3 sequence (P10520 whole entry): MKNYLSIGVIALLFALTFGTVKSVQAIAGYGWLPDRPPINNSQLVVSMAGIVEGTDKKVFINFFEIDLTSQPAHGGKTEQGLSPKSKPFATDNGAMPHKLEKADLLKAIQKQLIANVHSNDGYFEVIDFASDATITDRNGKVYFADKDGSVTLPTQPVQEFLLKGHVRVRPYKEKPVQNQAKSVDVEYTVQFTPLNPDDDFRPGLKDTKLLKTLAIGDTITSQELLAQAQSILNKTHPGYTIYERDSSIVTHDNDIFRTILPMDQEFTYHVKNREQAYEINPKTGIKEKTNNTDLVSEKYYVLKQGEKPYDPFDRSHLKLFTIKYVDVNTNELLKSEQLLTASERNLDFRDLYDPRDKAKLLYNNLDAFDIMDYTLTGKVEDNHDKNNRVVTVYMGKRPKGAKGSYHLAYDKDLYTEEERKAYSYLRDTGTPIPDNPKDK

[10] = system: Streptococcus sp. 'group A'; assay: Streptococcus pyogenes SK(-)GAS viability under kanamycin – luminescence, BacTiterGlo, confirmation, counter-screen for streptokinase expression inhibitor project, dose response (AID 1900); type: functional, organism-based
Streptococcus = assay: GAS UMAA2166 growth inhibition – luminescence, BacTiterGlo, counter-screen for streptokinase expression inhibitor project, dose response (AID 1915); type: functional, organism-based;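 further: potency for reduction of bacterial viability or growth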
[11] = blockers of HIV-1 envelope-mediated cell-cell fusion – cherry-pick, dose response (AID 652057); type: functional, cell-based
[12] = HIV-1 AD8 envelope cell-cell fusion blockers – cherry-pick, dose response (AID 652062); type: functional, cell-based;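 further: luciferase signal from cell-cell fusion driven by HIV-1 clade B AD8 Env; potency is for inhibitors of fusion seen as a drop in luminescence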
INS1 = assay: INS-1E survival protection against cytokine death – cell-based, luminescence, retest, dose response (AID 449756); type: functional; settings: Rattus norvegicus;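 further: cell death triggered by IL-1 beta plus TNF-alpha plus IFN-gamma mixture; protective hits raise ATP signal compared with cytokine alone wells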

Question: For CCOC(=O)CC1C(=O)NCCN1c1nc2c(C)cccn2c(=O)c1/C=C1\SC(=S)N(CC(C)C)C1=O (configuration not stated), which IC50 (Aminopeptidase N) is on record?
Answer: 42.5 µM (active)

Question: Which AC50 [1] does the source give for O=C(Nc1cccc(OC(=O)N2CCOCC2)c1)N1CCOCC1 here?
Answer: > 70 µM (inactive)

Question: With CCCOc1ccc(-c2nc(C#N)c(NCCCn3ccnc3)o2)cc1 as the molecule, how does the IC50 (cells [2]) read?
Answer: 22.4 µM (active)

Question: What about the CC50 [3] of the same molecule?
Answer: 27.6 µM (active)

Question: And the EC50 [4]?
Answer: 61.8 µM (active)

Question: And the EC50 [5]?
Answer: 10.2 µM (active)

Question: Which AC50 [6] does the source give for COc1ccc(NC2CCN(C3CC(=O)N(c4ccc(F)c(Cl)c4)C3=O)CC2)cc1 (configuration not stated) here?
Answer: 4.11 µM (active)

Question: For CCOC(=O)c1c(C)[nH]c(C(=O)OCc2ccccc2F)c1C, which EC50 (cells [7]) is on record?
Answer: > 350 µM (not active)

Question: What about the EC50 (cells [8]) of the same molecule?
Answer: 93.5 µM (active)

Question: With Cn1ncc(Br)c1C(=O)OCC(=O)Nc1nc(-c2ccccc2)cs1 as the molecule, how does the EC50 (cells [7]) read?
Answer: > 350 µM (not active)

Question: What about the EC50 (cells [8]) of the same molecule?
Answer: 36.4 µM (active)

Question: For Cc1ccc(C2(C)NC(=O)N(CC(=O)NC(=O)NC(C)(C)C)C2=O)cc1 (configuration not stated), which EC50 (cells [7]) is on record?
Answer: > 350 µM (not active)

Question: And the EC50 (cells [8])?
Answer: > 350 µM (not active)

Question: Which results are given for CCN(CC)CCNCc1nc2ccccc2c(=O)n1-c1ccc(F)cc1?
Answer: EC50 (cells [7]): > 350 µM (not active); EC50 (cells [8]): > 350 µM (not active)

Question: With Cn1cccc1C(=O)NC(=O)COC(=O)c1cc(S(=O)(=O)N2CCCCC2)ccc1Cl as the molecule, how does the EC50 (cells [7]) read?
Answer: > 350 µM (not active)

Question: And the EC50 (cells [8])?
Answer: > 350 µM (not active)

Question: With O=C(Nc1nccs1)c1ccc(COc2ccc(Cl)cc2)o1 as the molecule, how does the CC50 [3] read?
Answer: > 40 µM (active)

Question: With CN(CC(=O)Nc1ccccc1Br)C(=O)c1cccnc1Nc1cccc(C(F)(F)F)c1 as the molecule, how does the CC50 [9] read?
Answer: 19.9 µM (active)

Question: What does the source list for N#C[C-](C#N)c1nc2ccccc2nc1-[n+]1cccc(NC(=O)c2ccc(F)cc2)c1?
Answer: EC50 (cells [7]): > 350 µM (not active); EC50 (cells [8]): > 350 µM (not active)

Question: For Cc1cccc(-c2ncc(CN3CCC(CO)(CCCc4ccccc4)CC3)cn2)c1, which CC50 [9] is on record?
Answer: > 40 µM (active)

Question: For O=c1oc2c(CN3CCOCC3)c(O)c(Cl)cc2c2c1CCC2, which IC50 (Aminopeptidase N) is on record?
Answer: 42.9 µM (active)

Question: For CCOC(=O)/C(=C/c1ccc(OC(=O)c2ccccc2)cc1)C(C)=O, which AC50 [6] is on record?
Answer: 2.06 µM (active)

Question: For N#Cc1c(-c2ccccc2)nc(SCC(=O)N(c2ccccc2)c2ccccc2)[nH]c1=O, which IC50 (Aminopeptidase N) is on record?
Answer: 34.3 µM (active)

Question: For O=C(C[n+]1ccn(CCCNP2(=O)C=C(c3ccccc3)OC(c3ccccc3)=C2)c1)c1cccs1, which EC50 (cells [7]) is on record?
Answer: > 350 µM (not active)

Question: What about the EC50 (cells [8]) of the same molecule?
Answer: > 350 µM (not active)

Question: For CCOC(=O)C1=C(Nc2ccc(C)cc2)S/C(=C\c2ccc(OCC(=O)O)c(OCC)c2)C1=O, which IC50 (Aminopeptidase N) is on record?
Answer: 48.6 µM (active)

Question: What about the IC50 (Leucine aminopeptidase) of the same molecule?
Answer: 15.6 µM (active)

Question: With O=c1oc2c(CN3CCOCC3)c(O)c(Cl)cc2c2c1CCCC2 as the molecule, how does the IC50 (Aminopeptidase N) read?
Answer: 32.2 µM (active)

Question: Which EC50 (Streptokinase A) does the source give for Cc1n[nH]c(C)c1CCOc1ccc(C(C)C)cc1 here?
Answer: > 150 µM (not active)

Question: What about the IC50 (cells [2]) of the same molecule?
Answer: 12.2 µM (active)

Question: And the EC50 [10]?
Answer: 25.1 µM (active)

Question: What about the EC50 (Streptococcus) of the same molecule?
Answer: 43.6 µM (active)

Question: What about the CC50 [3] of the same molecule?
Answer: > 40 µM (active)

Question: For C(=NN=C1c2ccccc2-c2ccccc21)c1c[nH]c2ccccc12, which AC50 [6] is on record?
Answer: 5.17 µM (active)

Question: What does the source list for C[C@H]1CN([C@@H](C)CO)S(=O)(=O)c2ccc(C3=CCCC3)cc2O[C@H]1CN(C)Cc1ccccc1?
Answer: AC50 [11]: 18.5 µM (active); AC50 [12]: 25.1 µM (active)

Question: Which results are given for Cc1cccc(/C=N/NC(=O)c2c(-c3ccccc3)noc2C)c1O?
Answer: EC50 (cells [7]): 23 µM (active); EC50 (cells [8]): > 350 µM (not active); AC50 (INS1): 1.5 µM (active)

Question: For O=C/C(=N\Nc1cccc(C(F)(F)F)c1)C(=O)c1ccccc1, which AC50 [6] is on record?
Answer: 6.15 µM (active)

Source: ChEMBL document CHEMBL1201862, “PubChem BioAssay data set” (2004)
